Consider 2 compounds from patent US4772603A, “Method for treating congestive heart failure, angina, occlusive peripheral vascular disease or cerebral vascular disease in mammals” (Beecham Group p.l.c., priority 1984, dated 1988).

Assay [1] deals with Rabbit isolated mesenteric artery. The experiment in a line: Rabbit isolated mesenteric artery: inhibition of contractions due to 30 and 90 mM KCl. Details: species or system rabbit (male New Zealand White). As to the method:
(2) Rabbit isolated mesenteric artery. Mesenteric arteries (3 mm rings) were removed from male New Zealand White rabbits and mounted, at a resting tension of 1.5-2.0 g, in a 10 ml organ bath containing a Ringer solution, at 37° C., of the following composition (mM): NaCl 120.8; KCl 5.9; CaCl2 2.5; MgCl2 1.2; HEPES 5.8; glucose 11.5. The bathing solution was bubbled with a 95% oxygen and 5% carbon dioxide mixture. Each preparation was allowed 1-11/2 h to equilibrate before the addition of either 30 or 90 mM KCl to contract the tissue. The ability of test compound to relax the sustained contraction due to KCl was determined by assessing the % reduction (mean±s.e.m.; 4-9 tissues) produced by varying concentrations of test compound.
IC50 is the concentration of compound 1 halving the contraction due to KCl; parenthesis indicate 95% fiducial limits.

The subject of the next assay is hypoxic skeletal muscle. Nature of the assay: Effect of compounds on skeletal muscle oxygen tension in the rat (with reduction in mean arterial blood pressure). Format: in vivo. The following applies: for CHANGE IN PO2 (average change in muscle PO2 produced by treatment) / REDUCTION IN MABP (Mean Arterial Blood Pressure): mean±S.D., 6 rats/treatment; for oxygen tension (PO2) in hypoxic skeletal muscle: at approximately a hypotensive dose.

The test system of the next assay is Rat isolated portal vein. The experiment in a line: Rat isolated portal vein: inhibition of spontaneous contractions and of contractions due to added calcium. To be noted: for IC50: Rattus norvegicus, 0.25 h, 15 min contact time. Further details: species or system rat (male Sprague Dawley). The method, then: (1) Rat isolated portal vein. Male Sprague Dawley rats (250-350 g) were killed by cervical dislocation. Portal veins (2-3 cm in length) were set up under 0.8-1 g tension in a 10 ml organ bath containing Krebs-Henseleit solution, at 37° C., of the following composition (mM): NaCl 118, NaHCO3 25, glucose 5, KH2 PO4 1.18, KCl 4.69, MgSO4 0.59, CaCl2 ·H2 O 1.87. The tissue was aerated with a 95% oxygen and 5% carbon dioxide mixture. Isometric tension was recorded using a Devices strain gauge and recorder. Each preparation was allowed 1h to equilibrate before the addition of test compound. The ability of a compound to inhibit the contractions due to added calcium (3 mM CaCl2) was determined in tissues bathed in Krebs-Henseleit solution containing 0.05 mM CaCl2 (in order to reduce spontaneous contractions). Then percentage inhibition (mean±s.e.m.; 6-9 tissues) of the amplitude of the spontaneous contractions, and contractions due to added calcium, was determined after 15 min contact time with test compound.
IC50 is concentration of compound reducing contractions by 50%; parenthesis indicate 95% fiducial limits.

Structures are written as SMILES. Where two headings read alike, the source gives them in different places. Some results are limits rather than exact numbers.

Source text for hypoxic skeletal muscle: Values are mean±S.D.; 6 rats/treatment
MABP=Mean Arterial Blood Pressure
Change in PO2 =the average change in muscle PO2 produced by treatment

Regarding `CC1(C)Oc2ccc(C#N)cc2[C@@H](N2CCCC2=O)[C@@H]1O` (relative stereo) [Compound 1, 6-cyano-3,4-dihydro-2,2-dimethyl-trans-4-(2-oxo-1-pyrrolidinyl)-2H-benzo[b]pyran-3-ol], the “antagonism of contractions due to a partially / fully depolarising concentration of potassium” value in assay [1] (30 mM (partially) and 90 mM (fully depolarising) KCl) is reported as “antagonises the contractions due to a partially, but not a fully, depolarising concentration of potassium”. For the same compound, the IC50 in assay [1] (Oryctolagus cuniculus, read-out: IC50 90 mM KCl (concentration halving the contraction due to KCl)) is above 10000 nM; in the assay on Rat isolated portal vein (contractions due to added calcium (3 mM CaCl2), 0.05 mM CaCl2 Krebs-Henseleit, 95% fiducial limits (0.87-3.5), read-out: IC50 Ca^2+ (3 mM) (concentration reducing contractions by 50%)) it was 150 nM; in the assay with Rat isolated portal vein (spontaneous contractions, 95% fiducial limits (0.67-7.8), read-out: IC50 Spontaneous (concentration reducing contractions by 50%)), 120 nM. The “effect against a high concentration of KCl” value in assay [1] (high KCl (90 mM)) is “effectiveness”. Also, in the assay with hypoxic skeletal muscle (0.3 mg/kg intraduodenally), the “CHANGE IN PO2 (average change in muscle PO2 produced by treatment)” value is recorded as “+8.7 ± 2.3 TORR”. The “REDUCTION IN MABP (Mean Arterial Blood Pressure)” value in the assay with hypoxic skeletal muscle (0.3 mg/kg intraduodenally) worked out at 44 ± 4 MMHG. Besides, the “oxygen tension (PO2) in hypoxic skeletal muscle” value with hypoxic skeletal muscle was “large increase”. Moreover, the “inhibitor of spontaneous contractions and of those due to added calcium (comparison in words)” value in the assay with Rat isolated portal vein (spontaneous versus added calcium contractions) is “equipotent”.
Take `CCN(C(C)=O)[C@@H]1c2cc(C#N)ccc2OC(C)(C)[C@H]1O` (relative stereo) [Compound 2, trans-4-N-acetylethylamino-6-cyano-3,4-dihydro-2,2-dimethyl-2H-benzo[b]pyran-3-ol]: in the assay with hypoxic skeletal muscle (1.0 mg/kg intraduodenally), the “CHANGE IN PO2 (average change in muscle PO2 produced by treatment)” value is given as “+8.2 ± 3.7 TORR” and the “REDUCTION IN MABP (Mean Arterial Blood Pressure)” value was found to be 36 ± 4 MMHG. In addition, the “oxygen tension (PO2) in hypoxic skeletal muscle” value with hypoxic skeletal muscle was “large increase”.
